Results: the supplement of paper PMC9663587

What was measured:
Assay in all cases: area over the GR curve, 72 h; higher = more effect;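 note: Dye Drop or Deep Dye Drop imaging of viable cells in 384-well plates (Hoechst nuclei, LIVE/DEAD dye), nine half-log doses, GR normalized to DMSO controls and time-zero plates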
HCC1806 = test system: HCC1806
CAL120 = test system: CAL120
BT549 = test system: BT549
MDAMB468 = test system: MDAMB468
SUM190PT = test system: SUM190PT
T47D = test system: T47D
HTERT_HME1 = test system: HTERT_HME1
EFM19 = test system: EFM19
HS578T = test system: HS578T
SUM1315 = test system: SUM1315
MCF7 = test system: MCF7

Structure (SMILES)	area over the GR curve (HCC1806)	area over the GR curve (CAL120)	area over the GR curve (BT549)	area over the GR curve (MDAMB468)	area over the GR curve (SUM190PT)	area over the GR curve (T47D)	area over the GR curve (HTERT_HME1)	area over the GR curve (EFM19)	area over the GR curve (HS578T)	area over the GR curve (SUM1315)	area over the GR curve (MCF7)	area over the GR curve (HCC1806; main component drawn)	area over the GR curve (CAL120; main component drawn)	area over the GR curve (BT549; main component drawn)	area over the GR curve (MDAMB468; main component drawn)	area over the GR curve (T47D; main component drawn)	area over the GR curve (HTERT_HME1; main component drawn)	area over the GR curve (HS578T; main component drawn)	area over the GR curve (SUM1315; main component drawn)	area over the GR curve (MCF7; main component drawn)
Cc1nc(NC(=O)N2CCC[C@H]2C(N)=O)sc1-c1ccnc(C(C)(C)C(F)(F)F)c1 [Alpelisib/BYL719] (max 10 µM)	0.0386 GR	0.0922 GR	0.0322 GR	0.0301 GR	-0.103 GR	0.455 GR	0.112 GR	0.445 GR	0.0905 GR	0.116 GR	0.326 GR	–	–	–	–	–	–	–	–	–
CN(C)C/C=C/C(=O)Nc1ccc(O[C@@H]2CCC[C@@H](Nc3ncc(Cl)c(-c4c[nH]c5ccccc45)n3)C2)cc1 [BSJ-01-175] (max 10 µM)	0.581 GR	0.667 GR	0.433 GR	0.892 GR	1.16 GR	0.537 GR	0.955 GR	0.3 GR	1.07 GR	0.509 GR	1.19 GR	–	–	–	–	–	–	–	–	–
CC(=O)c1c(C)c2cnc(Nc3ccc(N4CCN(CCOCCOCCOCCNC(=O)COc5cccc6c5C(=O)N(C5CCC(=O)NC5=O)C6=O)CC4)cn3)nc2n(C2CCCC2)c1=O (centres undefined) [BSJ-03-123] (max 10 µM)	0.21 GR	0.16 GR	0.116 GR	0.265 GR	0.568 GR	0.746 GR	0.422 GR	0.318 GR	0.298 GR	0.312 GR	0.306 GR	–	–	–	–	–	–	–	–	–
CC(C)Nc1cc(-c2c[nH]c(C(=O)N[C@H](CO)c3cccc(Cl)c3)c2)c(Cl)cn1 [BVD523] (max 10 µM)	0.0314 GR	0.108 GR	0.109 GR	0.267 GR	0.218 GR	0.185 GR	0.443 GR	0.0226 GR	0.316 GR	0.0786 GR	0.192 GR	–	–	–	–	–	–	–	–	–
Cc1c(N)nc([C@H](CC(N)=O)NC[C@H](N)C(N)=O)nc1C(=O)N[C@H](C(=O)N[C@H](C)[C@@H](O)[C@H](C)C(=O)N[C@H](C(=O)NCCc1nc(-c2nc(C(=O)NCCC[S+](C)C)cs2)cs1)[C@@H](C)O)[C@@H](OC1OC(CO)C(O)C(O)C1OC1OC(CO)C(O)C(OC(N)=O)C1O)c1cnc[nH]1 (some centres undefined) [Bleomycin] (max 10 µM)	–	–	–	–	–	–	–	–	–	–	–	0.117 GR	0.232 GR	0.467 GR	0.325 GR	0.462 GR	0.48 GR	0.446 GR	0.41 GR	0.555 GR
Nc1cc(C(F)(F)F)c(-c2cc(N3CCOCC3)nc(N3CCOCC3)n2)cn1 [Buparlisib/NVP-BKM120] (max 10 µM)	0.305 GR	0.339 GR	0.248 GR	0.357 GR	0.253 GR	0.482 GR	0.243 GR	0.323 GR	0.376 GR	0.438 GR	0.503 GR	–	–	–	–	–	–	–	–	–
COc1cc2nccc(Oc3ccc(NC(=O)C4(C(=O)Nc5ccc(F)cc5)CC4)cc3)c2cc1OC [Cabozantinib] (max 10 µM)	-0.021 GR	0.0847 GR	0.0035 GR	0.0415 GR	0.138 GR	0.0578 GR	0.0866 GR	-0.0111 GR	0.134 GR	0.105 GR	0.107 GR	–	–	–	–	–	–	–	–	–
COc1cc2c(Oc3ccc4[nH]c(C)cc4c3F)ncnc2cc1OCCCN1CCCC1 [Cediranib/AZD2171] (max 10 µM)	0.0606 GR	0.299 GR	0.15 GR	0.165 GR	-0.0464 GR	0.122 GR	-0.0207 GR	0.0327 GR	0.394 GR	0.243 GR	0.0756 GR	–	–	–	–	–	–	–	–	–
Cc1cc(Nc2ncc(Cl)c(Nc3ccccc3S(=O)(=O)C(C)C)n2)c(OC(C)C)cc1C1CCNCC1 [Ceritinib/LDK378] (max 10 µM)	0.156 GR	0.337 GR	0.141 GR	0.405 GR	0.242 GR	0.312 GR	0.286 GR	0.0971 GR	0.305 GR	0.413 GR	0.457 GR	–	–	–	–	–	–	–	–	–
N.N.[Cl][Pt][Cl] [Cisplatin] (max 10 µM)	0.317 GR	0.182 GR	0.283 GR	0.287 GR	–	0.214 GR	0.297 GR	–	0.235 GR	0.296 GR	0.0631 GR	–	–	–	–	–	–	–	–	–
Cc1nc(Nc2ncc(C(=O)Nc3c(C)cccc3Cl)s2)cc(N2CCN(CCO)CC2)n1 [Dasatinib] (max 10 µM)	0.63 GR	0.519 GR	0.237 GR	0.143 GR	0.32 GR	0.193 GR	0.415 GR	0.685 GR	0.71 GR	0.74 GR	0.483 GR	–	–	–	–	–	–	–	–	–
COc1cccc2c1C(=O)c1c(O)c3c(c(O)c1C2=O)C[C@@](O)(C(=O)CO)C[C@@H]3O[C@H]1C[C@H](N)[C@H](O)[C@H](C)O1 [Doxorubicin] (max 3.162 µM)	0.628 GR	0.697 GR	0.76 GR	0.912 GR	0.403 GR	0.919 GR	0.836 GR	0.448 GR	0.801 GR	0.513 GR	0.636 GR	–	–	–	–	–	–	–	–	–
COc1cc([C@@H]2c3cc4c(cc3[C@@H](O[C@@H]3O[C@@H]5CO[C@@H](C)O[C@H]5[C@H](O)[C@H]3O)[C@H]3COC(=O)[C@H]23)OCO4)cc(OC)c1O [Etoposide] (max 10 µM)	0.648 GR	0.381 GR	0.473 GR	0.429 GR	–	0.666 GR	0.542 GR	–	0.377 GR	0.381 GR	0.499 GR	–	–	–	–	–	–	–	–	–
CO[C@H]1C[C@@H]2CC[C@@H](C)[C@@](O)(O2)C(=O)C(=O)N2CCCC[C@H]2C(=O)O[C@H]([C@H](C)C[C@@H]2CC[C@@H](OCCO)[C@H](OC)C2)CC(=O)[C@H](C)/C=C(\C)[C@@H](O)[C@@H](OC)C(=O)[C@H](C)C[C@H](C)/C=C/C=C/C=C/1C [Everolimus] (max 10 µM)	0.197 GR	0.416 GR	0.439 GR	0.429 GR	0.571 GR	0.616 GR	0.371 GR	0.731 GR	0.527 GR	0.454 GR	0.564 GR	–	–	–	–	–	–	–	–	–
CCC(=O)Nc1ccc(C(=O)Nc2ccc(Nc3ncc4c(n3)N(C)c3ccc(C)cc3C(=O)N4C)cc2)cc1 [FMF-03-145-1]	1.08 GR	0.34 GR	1.02 GR	0.572 GR	0.94 GR	0.979 GR	0.44 GR	0.341 GR	1.07 GR	0.539 GR	0.957 GR	–	–	–	–	–	–	–	–	–
COc1cc(N2CCN(C)CC2)ccc1Nc1ncc2c(n1)N(C)c1ccccc1C(=O)N2CC(F)(F)F [FMF-03-146-1]	0.0215 GR	-0.0113 GR	0.0127 GR	0.0476 GR	0.101 GR	0.0652 GR	0.049 GR	0.0185 GR	0.0103 GR	0.0401 GR	0.0454 GR	–	–	–	–	–	–	–	–	–
CC[C@@]1(O)C(=O)OCc2c1cc1n(c2=O)Cc2cc3c(CN(C)C)c(O)ccc3nc2-1 [Topotecan] (max 10 µM)	1.07 GR	0.913 GR	0.851 GR	1.07 GR	–	0.959 GR	0.873 GR	–	1.02 GR	0.769 GR	0.854 GR	–	–	–	–	–	–	–	–	–
